Assay results: patent US20260253701A1, “EEG BIOMARKERS FOR ALPHA5 PAM DOSAGE DETERMINATION AND THERAPEUTIC MONITORING” (priority 2022, published 2026)

Assays:
α5 subunit receptors [1] = molecular target: T1, α5 subunit receptors (Homo sapiens, UniProt P18507+P31644); details: 3 μM; higher levels more strongly target α1, α2, & α3 subunit receptors; cited from earlier work
Target sequence in this assay (P28472 26-473): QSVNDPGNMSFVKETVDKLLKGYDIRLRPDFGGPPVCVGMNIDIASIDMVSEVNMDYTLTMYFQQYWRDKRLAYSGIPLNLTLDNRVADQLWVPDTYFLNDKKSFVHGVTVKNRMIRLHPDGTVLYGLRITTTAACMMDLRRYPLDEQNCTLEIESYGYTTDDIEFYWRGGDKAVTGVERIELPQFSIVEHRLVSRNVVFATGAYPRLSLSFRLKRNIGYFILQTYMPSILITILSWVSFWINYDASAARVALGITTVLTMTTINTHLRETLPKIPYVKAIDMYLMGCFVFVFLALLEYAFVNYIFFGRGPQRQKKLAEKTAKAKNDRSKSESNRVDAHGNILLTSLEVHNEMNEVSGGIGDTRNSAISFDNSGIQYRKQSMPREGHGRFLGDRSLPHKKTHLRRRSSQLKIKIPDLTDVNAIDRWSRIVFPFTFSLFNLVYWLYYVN
Target sequence in this assay (P18507 40-467): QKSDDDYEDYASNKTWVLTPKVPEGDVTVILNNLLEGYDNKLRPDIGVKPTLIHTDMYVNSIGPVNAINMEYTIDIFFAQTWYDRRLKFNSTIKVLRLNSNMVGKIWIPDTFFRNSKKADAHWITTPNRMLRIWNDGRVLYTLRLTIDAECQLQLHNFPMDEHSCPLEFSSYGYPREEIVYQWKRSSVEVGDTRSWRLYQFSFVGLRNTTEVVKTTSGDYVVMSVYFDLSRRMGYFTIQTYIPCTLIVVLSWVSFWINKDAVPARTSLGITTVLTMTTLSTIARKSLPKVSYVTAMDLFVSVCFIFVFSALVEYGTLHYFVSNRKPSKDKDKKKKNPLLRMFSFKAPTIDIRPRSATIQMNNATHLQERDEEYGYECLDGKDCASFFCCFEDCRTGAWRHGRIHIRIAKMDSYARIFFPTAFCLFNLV
Target sequence in this assay (P31644 32-462): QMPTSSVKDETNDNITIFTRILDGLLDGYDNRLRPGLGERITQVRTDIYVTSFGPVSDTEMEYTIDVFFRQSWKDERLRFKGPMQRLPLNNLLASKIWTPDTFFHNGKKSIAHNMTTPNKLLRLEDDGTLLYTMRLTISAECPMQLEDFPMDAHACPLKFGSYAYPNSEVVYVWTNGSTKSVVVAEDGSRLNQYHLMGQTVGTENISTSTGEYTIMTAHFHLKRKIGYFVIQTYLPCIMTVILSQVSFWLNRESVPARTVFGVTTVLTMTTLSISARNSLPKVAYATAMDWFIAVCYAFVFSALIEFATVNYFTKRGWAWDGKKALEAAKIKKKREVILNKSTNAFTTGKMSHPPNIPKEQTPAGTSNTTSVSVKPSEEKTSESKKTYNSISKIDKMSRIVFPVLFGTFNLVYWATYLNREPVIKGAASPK

[2] = test system: chronically stressed mice; details: mouse, in vivo; cited from earlier work
α5 subunit receptors [3] = molecular target: T1, α5 subunit receptors; experiment: whole-cell voltage-clamp recordings of tonic inhibition current in human cortical L2/3 Pyr neurons; assay type: cell-based; set-up: Neocortical tissue resected during tumor resection and anterior temporal lobectomy; from tissue; host or cells: human neocortical slices (resected frontal/temporal lobe tissue), L2/3 pyramidal neurons
Excerpt: Electrophysiology Data. We used whole-cell voltage-clamp recordings of baseline tonic inhibition current and tonic inhibition current during exposure to α5-PAM in human cortical L2/3 Pyr neurons (10 cells: 9 cells from 3 male subjects, 1 cell from 1 subject) from patients undergoing a standard anterior temporal lobectomy or tumor resection from the frontal or temporal lobe. Written informed consent was obtained from all participants, in accordance with the Declaration of Helsinki and the University Health Network Research Ethics board.
The data was collected using surgery resection, solutions, tissue preparation, and recording equipment described in Chameh et al., 2021 Nature Communications, 12(1), 2497 and Yao et al., 2022 Cell Reports, 38(2). Neocortical tissue resected during tumor resection and anterior temporal lobectomy was immediately submerged in ice-cold (~4° C.) cutting solution and transferred to a recording chamber within 20 minutes.
For recordings, slices were transferred to a recording chamber mounted on a fixed-stage upright microscope (Axioskop 2 FS MOT; Carl Zeiss, Germany). Slices were continually perfused at 4 ml/min with standard aCSF at 32-34° C. Whole-cell patch-clamp recordings were obtained using a Multiclamp 700 A amplifier, Axopatch 200B amplifier, and pClamp 9.2 and pClamp 10.6 data acquisition software (Axon instruments, Molecular Devices, USA). Subsequently, electrical signals were digitized at 20 kHz using a 1320X digitizer. For voltage-clamp recordings of tonic current, low-resistance patch pipettes (2-4 MΩ) were filled with a CsCl-based solution containing (in mM) 140 CsCl, 10 EGTA, 10 Hepes, 2 MgCl2, 2 Na2ATP, 0.3 GTP, and 5 QX314 adjusted to pH 7.3 with CsOH. The junction potential was calculated to be 4.3 mV and the holding potential was-74.3 mV after junction potential correction. In this configuration, 5 μM GABA, 25 μM AP5, 10 μM CNQX, and 10 μM CGP-35348 were first applied to generate larger GABA-dependent currents and assess baseline tonic inhibition currents while also blocking AMPA, NMDA, and GABAB mediated currents. […]
Target sequence in this assay (P31644 32-462): as above
Target sequence in this assay (P28472 26-473, further chain): as the sequence (P28472 26-473) above
Target sequence in this assay (P18507 40-467): as the sequence (P18507 40-467) above

## C#Cc1ccc2c(c1)C(c1ccccc1F)=N[C@H](C)c1c(C(=O)N(C)C)ncn1-2 [α5-PAM, GL-II-73]
α5 subunit receptors [1]
  subunit selectivity: selectively targeting α5 subunit receptors
[2]
  effect in chronically stressed mice: pro-cognitive effects
α5 subunit receptors [3]; 3 μM with 5 μM GABA, ± standard error of the mean, n=10 cells, baseline 65.86±10.28
  mean amplitude of tonic inhibitory current relative to endogenous current in picrotoxin condition: 95.28±14.52 pA
α5 subunit receptors [3]; therapeutically relevant dose (3 μM) of α5-PAM in addition to GABA, mean±standard deviation, GABA alone −65.9±30.8
  tonic inhibition current magnitude: −95.3±43.6 pA
α5 subunit receptors [3]; α5-PAM in addition to GABA vs GABA alone
  increase in current magnitude: 52%
